In one data set the test system is MDA-MB-468. As to the kind of experiment: Antiproliferative activity, SRB assay. The data set is classed as cell-based, human. To be noted: 72 hours of exposure; tested 5–625 μM. (In general: The SRB assay estimates cell density from bound dye.)
The conditions of data set [1]: cited from earlier work.

Regarding `CC(C)Cc1ccc([C@H](C)C(=O)O)cc1` [DXI, dexibuprofen], the “IC50 MDA-MB-468” value with MDA-MB-468 is recorded as “did not express any cytotoxic effect”. Besides, the Water solubility in data set [1] was 68.4 µg/mL.
